Results taken from patent publication US20240180910A1, “METHOD FOR TREATING CANCER WITH A CHEMOTHERAPEUTIC MODIFIER” (Elion Oncology, Inc., priority 2022, published 2024).
Like-named read-outs stand apart in the source and are kept apart here.

Key:
[1] = cited from earlier work; for t1/2: arithmetic mean
clinical = settings: human, in vivo
Experimental: (§1) To evaluate the safety, dose-limiting toxicities (DLTs), and maximum tolerated dose (MTD) of capecitabine administered to patients with advanced, refractory gastrointestinal tract (GI) tumors using a 7 days on +7 days off capecitabine regimen ˜24 hours after a single, fixed, oral 40 mg dose of eniluracil.
(§2) Eniluracil (40-50 mg) is orally administrated at Day 1. After 12-24 hours, capecitabine is orally administered. Capecitabine is given twice a day at 140-600 mg/day for a total of 7 days. Then the patient is rested for 7 days before receiving the next cycle which follows the above-described procedures. The cycles are repeated until either the patient has a complete response or when the disease progresses in the patient. A complete response means that the tumor is no longer present. Progression of the cancer means that the tumor starts enlarging or the tumor is no longer stable.
(§3) Primary Endpoints: • DLTs and incidences of AEs according to NCI CTCAE Version 5.0. • Concentrations of capecitabine, 5 FU, FBAL, 5′ DFCR, and 5′ DFUR in plasma, PK parameters will be estimated from concentration time data using noncompartmental methods, as data permit. • Concentrations of eniluracil in plasma; PK parameters will be estimated from concentration-time data using noncompartmental methods, as data permit. • 2.
(§4) Briefly, capecitabine was administered to patients with advanced, refractory gastrointestinal tract (GI) tumors using a 7 days on +7 days off capecitabine regimen ˜24 hours after a single, fixed, oral 40 mg dose of eniluracil.

[2] = cited from earlier work
[3] = colon cancer, adjuvant, XELODA 1250 mg/m^2/bid (n = 995), i.v. 5-FU/LV Mayo Clinic regimen (n = 974), cited from earlier work
[4] = tested on: patient-derived colon cancer xenograft CXF 280; settings: for Minimum T/C: days 1-14, 22-35, Day 35
Experimental: This study was to assess the antitumor efficacy of eniluracil in combination with different doses of capecitabine in the patient-derived colon xenograft CXF 280 subcutaneously implanted in immunodeficient athymic nude mice.
The study consisted of an in vivo efficacy experiment with the patient-derived colon cancer xenograft CXF 280 implanted subcutaneously in athymic nude mice.
This experiment consisted of six groups with six animals each. Animals were dosed in monotherapy with capecitabine at 300 or at 30 mg/kg/day daily for 2 weeks with a one-week dosing break followed by another 2 weeks of daily dosing (14 days ON and 7 days OFF). In combination therapies, capecitabine was dosed at 30, 15 or 7.5 mg/kg/day on days 1-7, 15-21 and 29-35 (7 days ON and 7 days OFF) as well as with eniluracil at 10 mg/kg/day on days 1, 3, 5, 15, 17, 19, 29, 31, and 33.
Combination therapies with capecitabine and eniluracil scheduled for the same dosing day were administered with a six-hour dosing delay after dosing with eniluracil in order to ensure that all the eniluracil is eliminated in the mouse prior to capecitabine administration.
All therapies were administered via oral gavage (p.o.) over the course of 35 days followed by an observation period of one week until day 42 of the experiment.
Relative tumor volumes (RTVs) for Day x were calculated by dividing the absolute individual tumor volume on Day x (Tx) by the absolute individual tumor volume of the same tumor on the day of randomization (Tr) multiplied by 100%.
Tumor growth inhibition was determined by comparison of the median RTV of the test groups (T) with the vehicle control group (C) and was expressed as minimum T/C value in percent. The minimum T/C value recorded for a test group during an experiment represents the maximum antitumor efficacy for the respective treatment.

[5] = human, in vivo
Experimental: as §1, §2, §3, §4

[6] = doses up to 50 g per day administered for seven days; cited from earlier work
[7] = Clinical trial: plasma pharmacokinetics, capecitabine 7 days on + 7 days off ~24 hours after single oral 40 mg eniluracil; settings: day 8
Experimental: as §1, §2, §3, §4

[8] = plasma, Day 14, after oral capecitabine 1255 mg/m^2, 8 cancer patients
[9] = plasma, Day 14, after oral capecitabine 1255 mg/m^2, 8 cancer patients, geometric mean
[10] = plasma, Day 14, after oral capecitabine 1255 mg/m^2, 8 cancer patients, median
[11] = 2005 EMA for Xeloda, capecitabine alone 1250 mg/m^2

## O=c1[nH]cc(F)c(=O)[nH]1 [5-FU, 5-Fluorouracil]
[1]; Capecitabine alone
  5-FU Mean T1/2: 0.76 h
[1]; after capecitabine oral dosing at 1255 mg/m^2
  exposure (AUC): approximately 1630 h*ng/mL
[1]; [8]
  t1/2: 0.76 h
[1]; [9]
  AUC0-t: 1620 ng·h/mL
  AUC0-∞: 1630 ng·h/mL
  Cmax: 709 ng/mL
[1]; [10]
  tmax: 2.00 h
clinical; 5-FU Day 2 Mean T1/2, capecitabine daily dose 75 (with Eniluracil)
  half-life: 3.6 h
clinical; 5-FU Day 2 Mean T1/2, capecitabine daily dose 150 (with Eniluracil)
  half-life: 3.35 h
clinical; 5-FU Day 2 Mean T1/2, capecitabine daily dose 300 (with Eniluracil)
  half-life: 3.54 h
clinical; 5-FU Day 2 Mean T1/2, capecitabine daily dose 450 (with Eniluracil)
  half-life: 5.71 h
clinical; half-life (T1/2) of 5-FU at day 2, capecitabine in combination with eniluracil pretreatment, highest over doses
  half-life: ≤ 5.71 h
[2]; [11]
  AUC0-∞: 2030 ng·h/mL
  peak plasma concentrations (Cmax): 950 ng/mL

## C[C@H]1O[C@@H](n2cc(F)c(N)nc2=O)[C@H](O)[C@@H]1O [5′-DFCR, 5′-deoxy-5-fluorocytidine]
[1]; [8]
  t1/2: 1.31 h
[1]; [9]
  AUC0-t: 3970 ng·h/mL
  AUC0-∞: 5210 ng·h/mL
  Cmax: 1710 ng/mL
[1]; [10]
  tmax: 2.00 h
[2]; [11]
  AUC0-∞: 7240 ng·h/mL
  peak plasma concentrations (Cmax): 3050 ng/mL
  time to peak plasma concentrations (tmax): 2.00 h

## C[C@H]1O[C@@H](n2cc(F)c(=O)[nH]c2=O)[C@H](O)[C@@H]1O [5′DFUR, doxifluridine]
[1]; [8]
  t1/2: 0.66 h
[1]; [9]
  AUC0-t: 19900 ng·h/mL
  AUC0-∞: 21700 ng·h/mL
  Cmax: 9370 ng/mL
[2]; [11]
  AUC0-∞: 24600 ng·h/mL
  peak plasma concentrations (Cmax): 12100 ng/mL
  time to peak plasma concentrations (tmax): 2.00 h

## CCCCCOC(=O)Nc1nc(=O)n([C@@H]2O[C@H](C)[C@@H](O)[C@H]2O)cc1F [Capecitabine, capecitabine]
[3]
  Abdominal pain upper, Grade 3/4: <1%
  Abdominal pain upper, Total: 6%
  Abdominal pain, Grade 3/4: 2%
  Abdominal pain, Total: 10%
  Alopecia, Total: 6%
  Anorexia, Grade 3/4: <1%
  Anorexia, Total: 9%
  Asthenia, Grade 3/4: <1%
  Asthenia, Total: 9%
  Conjunctivitis, Grade 3/4: <1%
  Conjunctivitis, Total: 5%
  Constipation, Total: 6%
  Diarrhea, Grade 3/4: 11%
  Dizziness, Grade 3/4: <1%
  Dizziness, Total: 5%
  Dysgeusia, Total: 6%
  Dyspepsia, Grade 3/4: <1%
  Dyspepsia, Total: 5%
  Erythema, Grade 3/4: 1%
  Erythema, Total: 6%
  Fatigue, Grade 3/4: <1%
  Fatigue, Total: 15%
  Hand-foot Syndrome, Grade 3/4: 17%
  Lethargy, Grade 3/4: <1%
  Lethargy, Total: 10%
  Nausea, Grade 3/4: 2%
  Nausea, Total: 33%
  Neutropenia, Grade 3/4: <1%
  Neutropenia, Total: 2%
  Pyrexia, Grade 3/4: <1%
  Pyrexia, Total: 4%
  Rash, Total: 6%
  Stomatitis, Grade 3/4: 2%
  Stomatitis, Total: 22%
  Vomiting, Grade 3/4: 2%
  Vomiting, Total: 14%
[3]; listed as XELODA
  Diarrhea, Total: 46%
  Hand-foot Syndrome, Total: 60%
[3]; listed as Xeloda
  Diarrhea, Total: about 46%
  Hand-foot Syndrome, Total: about 60%
[1]; [8]
  t1/2: 0.85 h
[1]; [9]
  AUC0-t: 7290 ng·h/mL
  AUC0-∞: 7400 ng·h/mL
  Cmax: 3990 ng/mL
[1]; [10]
  tmax: 1.50 h
[4]; Group 2: capecitabine 300 mg/kg/day p.o.
  Minimum T/C: 4.5%
[4]; Group 3: capecitabine 30 mg/kg/day p.o.
  Minimum T/C: 34.9%
[4]; monotherapy with capecitabine at 300 mg/kg/day in mice
  antitumor activity (in words): high antitumor activity
[2]; [11]
  AUC0-∞: 7750 ng·h/mL
  peak plasma concentrations (Cmax): 4670 ng/mL
  time to peak plasma concentrations (tmax): 1.50 h

## C#Cc1c[nH]c(=O)[nH]c1=O [Eniluracil, 5-Ethynyluracil]
[5]
  metabolism of capecitabine into FBAL (AUC and Cmax of FBAL): completely blocked
[6]
  safety: safe

## NCC(F)C(=O)O (stereo not drawn) [FBAL, α-fluoro-β-alanine]
[7]
  effects of eniluracil on FBAL metabolism: no longer apparent
[1]; human, in vivo, po, 1255 mg/m2
  AUC0-t: 30000 ng·h/mL
  AUC0-∞: 35200 ng·h/mL
  Cmax: 5320 ng/mL
  exposure (AUC): 30-35,000 h*ng/mL
  tmax: 3.34 h
[1]; human, in vivo
  Tmax of FBAL: 3.24 h
[1]; [8]
  t1/2: 3.23 h
[2]; in vivo, 1250 mg/m2
  AUC0-∞: 36300 ng·h/mL
  peak plasma concentrations (Cmax): 5460 ng/mL
  time to peak plasma concentrations (tmax): 3.34 h

## O=C1NCC(F)C(=O)N1 (centres unmarked) [FUH2]
[1]; [8]
  t1/2: 1.14 h
[1]; [9]
  AUC0-t: 1200 ng·h/mL
  AUC0-∞: 2150 ng·h/mL
  Cmax: 442 ng/mL
[1]; [10]
  tmax: 2.28 h
